Molecular target: T1, Pol theta polymerase domain (residues 1819-2590) (Homo sapiens, UniProt O75417)
T1 construct: Pol theta polymerase domain (residues 1819-2590)
T1 sequence (O75417 1819-2590): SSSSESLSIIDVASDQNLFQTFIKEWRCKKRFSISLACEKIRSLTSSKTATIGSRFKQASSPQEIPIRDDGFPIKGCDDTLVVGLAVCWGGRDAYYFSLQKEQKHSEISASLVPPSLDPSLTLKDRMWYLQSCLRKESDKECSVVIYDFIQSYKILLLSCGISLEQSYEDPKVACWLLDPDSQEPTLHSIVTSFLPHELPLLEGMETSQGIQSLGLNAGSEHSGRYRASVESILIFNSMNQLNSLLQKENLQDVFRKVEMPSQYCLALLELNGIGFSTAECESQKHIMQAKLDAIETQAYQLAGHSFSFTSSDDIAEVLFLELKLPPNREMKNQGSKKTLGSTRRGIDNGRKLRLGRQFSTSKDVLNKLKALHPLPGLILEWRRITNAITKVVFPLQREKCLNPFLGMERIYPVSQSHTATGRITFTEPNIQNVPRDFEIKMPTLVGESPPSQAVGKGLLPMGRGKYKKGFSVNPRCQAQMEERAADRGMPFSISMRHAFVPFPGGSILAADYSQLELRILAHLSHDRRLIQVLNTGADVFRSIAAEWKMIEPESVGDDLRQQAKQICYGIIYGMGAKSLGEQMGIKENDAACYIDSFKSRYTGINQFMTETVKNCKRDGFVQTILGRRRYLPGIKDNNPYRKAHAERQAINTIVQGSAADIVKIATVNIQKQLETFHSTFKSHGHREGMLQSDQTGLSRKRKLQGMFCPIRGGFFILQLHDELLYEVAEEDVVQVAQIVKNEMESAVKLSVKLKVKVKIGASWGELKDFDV
Test: Primer extension assay: inhibition of polymerase activity of Pol theta (molecular beacon fluorescence)
Format: biochemical
Conditions: Pol theta polymerase domain 4 nM; 15 min pre-incubation; fluorescence change over 30 min (ex 485 nm, em 535 nm); 11-point dilution series
Experimental: The ability of the compounds of Formula (I) to inhibit polymerase activity of Pol theta was determined using the assay described below.
A mixture of 20 uL of Pol theta polymerase domain (residues 1819-2590) at a final concentration of 4 nM in assay buffer (20 m M TRIS, pH 7.80, 50 mM KCl, 10 mM MgCl2, 1 mM DTT, 0.01% BSA, 0.01% Tween20) was added to test compounds (11-point dilution series of test compounds) except the low control wells without test compounds. The above enzyme and test compound inhibitor mixture was then incubated at room temperature for 15 min. An equal volume (20 μl) of dNTP substrate mixture (48 μM) and primed molecular beacon DNA (obtained by annealing template SEQ ID NO 2: (5′-CCTTCCTCCCGTGTCTTG-TACCTTCCCGTCA-GGAGGAAGG-3′) with 5′-TAMRA and 3′-BHQ and primer DNA (SEQ ID NO: 3; 5′-GACGGGAAGG-3′) in 10 mM Tris-HCl pH 8.0, 100 mM NaCl buffer) (96 nM) in assay buffer was added to all the test wells. The inhibition activity was measured by monitoring the fluorescence change over 30 min at 535 nm upon excitation at 485 nm. The high control (DMSO with enzyme) with high fluorescence intensity represents no inhibition of polymerase reaction while the low control (DMSO with buffer) with low fluorescence intensity represents full inhibition of polymerase activity. Slope of the reaction progress curves were used to calculate the rate of polymerization. The rates were used to determine the percent inhibition using a four-parameter inhibition model to generate IC50, Hill slope and max inhibition.

Row | SMILES | IC50
1 | CN(C(=O)COc1cc(Cl)cc(C(F)(F)F)c1)c1ccc(F)cc1 [Example 14, 2-[3-chloro-5-(trifluoromethyl)phenoxy]-N-(4-fluoro-phenyl)-N-methylacetamide] | 200 to 500 nM
2 | Cc1c(C#N)c(NCC(=O)N(C)c2ccc(F)cc2)nc2ccccc12 [Example 29, 2-[(3-cyano-4-methylquinolin-2-yl)amino]-N-(4-fluorophenyl)-N-methylacetamide] | 500 to 1000 nM
3 | CN(C(=O)CNc1ncc2c(c1C#N)CCC2)c1ccc(F)cc1 [Example 24, 2-(4-cyano-6,7-dihydro-5H-cyclopenta[c]pyridin-3-ylamino)-N-(4-fluorophenyl)-N-methylacetamide] | 500 to 1000 nM
4 | CN(C(=O)CNc1cc(Cl)cc(Cl)c1)c1ccc(F)cc1 [Example 31, 2-[(3,5-dichlorophenyl)amino]-N-(4-fluorophenyl)-N-methyl-acetamide] | 500 to 1000 nM
5 | Cc1cc(NCC(=O)N(C)c2ccccc2)nc(C)c1Cl [Example 34, 2-[(5-chloro-4,6-dimethylpyridin-2-yl)amino]-N-methyl-N phenylacetamide] | 500 to 1000 nM
6 | CC(=O)N1Cc2ccc(N(C)C(=O)CNc3nc(C(F)(F)F)cc(C(F)(F)F)c3C#N)cc2C1 [Example 59, N-(2-acetylisoindolin-5-yl)-2-((3-cyano-4,6-bis(trifluoromethyl)pyridin-2-yl)amino)-N-methylacetamide] | 500 to 1000 nM
7 | CN(C(=O)CNc1cc(Cl)cc(Br)c1)c1ccc(F)cc1 [Example 20, 2-[(3-bromo-5-chlorophenyl)amino]-N-(4-fluoro-phenyl)-N-methylacetamide] | 200 to 500 nM
8 | Cc1cc(OCC(=O)N(C)c2ccccc2)nc(C)c1Cl (racemic) [Example 36, 2-(5-chloro-4,6-dimethylpyridin-2-yloxy)-N-methyl-N-phenyl-acetamide] | 200 to 500 nM
9 | CN(C(=O)CNc1nc(C(F)(F)F)cc(C(F)(F)F)c1C#N)c1ccc2ncncc2c1 [Example 57, 2-((3-cyano-4,6-bis(trifluoromethyl)pyridin-2-yl)amino)-N-methyl-N-(quinazolin-6-yl)acetamide] | 200 to 500 nM
10 | Cc1nc(OCC(=O)N(C)c2ccc(Cl)c(Cl)c2)c(C#N)c(C)c1Cl [Example 33, 2-(5-chloro-3-cyano-4,6-dimethylpyridin-2-yloxy)-N-(3,4-dichlorophenyl)-N-methylacetamide] | < 200 nM
11 | CN(C(=O)CNc1nc(C(F)(F)F)cc(C(F)(F)F)n1)c1ccc(F)cc1 [Example 2, 2-(4,6-bis(trifluoromethyl)pyrimidin-2-ylamino)-N-(4-fluoro-phenyl)-N-methylacetamide] | < 200 nM
12 | Cc1nc(NCC(=O)N(C)c2ccc(F)cc2)c(C#N)c(C)c1Cl [Example 42, 2-(5-chloro-3-cyano-4,6-dimethylpyridin-2-ylamino)-N-(4-fluorophenyl)-N-methylacetamide] | < 200 nM
13 | COc1ccc(N(C)C(=O)CNc2nc(C(F)(F)F)cc(C(F)(F)F)c2C#N)cc1 [Example 9, 2-[[3-cyano-4,6-bis(trifluoromethyl)pyridin-2-yl]-amino]-N-(4-methoxyphenyl)-N-methylacetamide] | < 200 nM
14 | N#Cc1c(C(F)(F)F)cc(C(F)(F)F)nc1NCC(=O)N(CC(F)(F)F)c1ccc(F)cc1 [Example 8, 2-(3-cyano-4,6-bis(trifluoromethyl)pyridin-2-yl-amino)-N-(4-fluorophenyl)-N-(2,2,2-trifluoroethyl)-acetamide] | < 200 nM
15 | Cc1c(Cl)cnc(NCC(=O)N(C)c2ccccc2)c1C#N [Example 37, 2-(5-chloro-3-cyano-4-methylpyridin-2-ylamino)-N-methyl-N-phenylacetamide] | 200 to 500 nM
16 | Cc1nc(NCC(=O)N(C)c2ccccc2)c(C#N)cc1Cl [Example 38, 2-(5-chloro-3-cyano-6-methylpyridin-2-ylamino)-N-methyl-N-phenylacetamide] | 200 to 500 nM

The remaining lines, values ahead:

Row | IC50 | SMILES
17 | < 200 nM | CN(C(=O)CNc1nc(C(F)(F)F)cc(C(F)(F)F)c1C#N)c1cc(Cl)cc(Cl)c1 [Example 60, 2-((3-cyano-4,6-bis(trifluoromethyl)pyridin-2-yl)amino)-N-(3,5-dichlorophenyl)-N-methylacetamide]
18 | < 200 nM | CN(C(=O)CNc1nc(C(F)(F)F)cc(C(F)(F)F)c1C#N)c1ccc(Br)cc1 [Example 61, N-(4-bromophenyl)-2-((3-cyano-4,6-bis(trifluoromethyl)pyridin-2-yl)amino)-N-methylacetamide]
19 | < 200 nM | Cc1c(C#N)c(NCC(=O)N(C)c2ccc(F)cc2)nc2c1CCC2 [Example 27, 2-([3-cyano-4-methyl-5H,6H,7H-cyclopenta[b]-pyridin-2-yl]amino)-N-(4-fluorophenyl)-N-methylacetamide]
20 | < 200 nM | CN(C(=O)CNc1cc(Cl)cc(C(F)(F)F)c1C#N)c1ccc(F)cc1 [Example 11, 2-[[5-chloro-2-cyano-3-(trifluoromethyl)phenyl]-amino]-N-(4-fluorophenyl)-N-methylacetamide]
21 | < 200 nM | [2H]C([2H])([2H])N(C(=O)CNc1nc(C(F)(F)F)cc(C(F)(F)F)c1C#N)c1ccc(F)cc1 [Example 47, 2-((3-cyano-4,6-bis(trifluoromethyl)pyridin-2-yl)amino)-N-(4-fluorophenyl)-N-(methyl-d3)acetamide]
22 | < 200 nM | COc1ccc(N(C)C(=O)CNc2nc(C)c(Cl)c(C)c2C#N)cc1 [Example 22, 2-(5-chloro-3-cyano-4,6-dimethylpyridin-2-ylamino)-N-(4-methoxyphenyl)-N-methylacetamide]
23 | < 200 nM | Cc1coc2ccc(N(C)C(=O)CNc3nc(C(F)(F)F)cc(C(F)(F)F)c3C#N)cc12 [Example 51, 2-((3-cyano-4,6-bis(trifluoromethyl)pyridin-2-yl)amino)-N-methyl-N-(3-methylbenzofuran-5-yl)acetamide]
24 | < 200 nM | CN(C(=O)CNc1nc(C(F)(F)F)cc(C(F)(F)F)c1C#N)c1ccc2c(ccn2C)c1 [Example 55, 2-((3-cyano-4,6-bis(trifluoromethyl)pyridin-2-yl)amino)-N-methyl-N-(1-methyl-1H-indol-5-yl)acetamide]
25 | < 200 nM | CN(C(=O)CNc1nc(C(F)(F)F)cc(C(F)(F)F)c1C#N)c1ccc(F)cc1Cl [Example 48, N-(2-chloro-4-fluorophenyl)-2-((3-cyano-4,6-bis(trifluoromethyl)pyridin-2-yl)-amino)-N-methylacetamide]
26 | < 200 nM | Cc1nc(NCC(=O)N(C)c2ccc(F)cc2F)c(C#N)c(C)c1Cl [Example 26, 2-((5-chloro-3-cyano-4,6-dimethylpyridin-2-yl)-amino)-N-(2,4-difluorophenyl)-N-methylacetamide]
27 | < 200 nM | Cc1cc2cc(N(C)C(=O)CNc3nc(C(F)(F)F)cc(C(F)(F)F)c3C#N)ccc2o1 [Example 52, 2-((3-cyano-4,6-bis(trifluoromethyl)pyridin-2-yl)amino)-N-methyl-N-(2-methylbenzofuran-5-yl)acetamide]
28 | < 200 nM | CN(C(=O)CNc1cc(C(F)(F)F)cc(C(F)(F)F)n1)c1ccc(F)cc1 [Example 7, 2-((4,6-bis(trifluoromethyl)pyridin-2-yl)amino)-N-(4-fluoro-phenyl)-N-methylacetamide]
29 | < 200 nM | Cc1nc(NCC(=O)N(C)c2ccc(F)cc2)c(Cl)c(C)c1Cl [Example 23, 2-(3,5-dichloro-4,6-dimethylpyridin-2-ylamino)-N-(4-fluoro-phenyl)-N-methylacetamide]
